Measured values taken from patent US9145424B2, “Treatment of amyotrophic lateral sclerosis” (Northwestern University, priority 2008, dated 2015).
pEC50: −log10 of the molar value. Like-named read-outs stand apart in the source and are kept apart here.

Test system: PC12 cells that express mutant G93A SOD1
Experiment: Mutant SOD1-induced cytotoxicity protection assay
Details: for Corresponding % viability: rat, 48 h
Method: This idea was tested by examining the sensitivity of PC12 cells to SOD1 aggregates in the presence and absence of proteasome inhibitor MG132. PC12 cells expressing no SOD1, wild type SOD1, G85R SOD1 or G93A SOD1 were grown with or without MG132 (FIG. 1).
PC12 cells expressing G93A SOD1 were treated with 100 nM MG132 with or without co-treatment with geldanamycin or radicicol.

[1] = Rattus norvegicus, PC-12, read-out: EC50 after Normalization, normalised with the corresponding 3299 EC50
[2] = read-out: Best EC50, PC12 G93A SOD1 cells, MG132, calcein-AM viability
[3] = Rattus norvegicus, PC-12, read-out: Best EC50, PC12 G93A SOD1 cells, MG132, calcein-AM viability
[4] = read-out: EC50 after Normalization, normalised with the corresponding 3299 EC50

## O=c1cc(COc2ccc(Cl)cc2)[nH][nH]1 [CMB-086902-1]
[1]
  pEC50: 6.19
  Corresponding % viability: 131%
[2]
  pEC50: 6.24

## Cc1cc([S+]([O-])Cc2cc(=O)[nH][nH]2)c(C)cc1Cl (centres unmarked) [CMB-086482-1]
[3]
  pEC50: 5.35
[1]
  pEC50: 5.54
  Corresponding % viability: 123%

## COc1ccc(SCc2cc(=O)[nH][nH]2)cc1 [CMB-086477-1]
[3]
  pEC50: 5.38
[1]
  pEC50: 5.74
  Corresponding % viability: 102%

## O=c1cc(CS(=O)(=O)c2cc(Cl)cc(Cl)c2)[nH][nH]1 [CMB-087235-1]
[3]
  pEC50: 6.44
[1]
  pEC50: 6.12
  Corresponding % viability: 130%

## O=c1cc(COc2cc(C(F)(F)F)cc(C(F)(F)F)c2)[nH][nH]1 [CMB-087260-1]
[3]
  pEC50: 6.89
[1]
  pEC50: 6.24
  Corresponding % viability: 120%

## CCc1ccccc1SCc1cc(=O)[nH][nH]1 [CMB-086901-1]
[3]
  pEC50: 5.69
[1]
  pEC50: 5.60
  Corresponding % viability: 106%

## CCc1cccc(OCc2cc(=O)[nH][nH]2)c1 [CMB-087214-1]
[3]
  pEC50: 5.95
[1]
  pEC50: 6.14
  Corresponding % viability: 125%

## O=c1cc(C[S+]([O-])c2ccc(Cl)cc2)[nH]n1-c1ccccc1 (centres unmarked) [CMB-086474-1]
[3]
  pEC50: < 4.49

## CN1N=C(CN(C)c2cc(Cl)cc(Cl)c2)C(C)(C)C1=O [Compound 34, 3-(((3,5-Dichlorophenyl)(methyl)amino)methyl)-1,4,4-trimethyl-1H-pyrazol-5(4H)-one]
  activity in the cytotoxicity protection assay, in words: devoid of activity

## O=c1cc(CSc2ccc(Cl)cc2)[nH][nH]1 [CMB-086836-1]
[3]
  pEC50: 5.38
  Corresponding % viability: 75%

## CC(C)c1ccccc1SCc1cc(=O)[nH][nH]1 [CMB-086899-1]
[3]
  pEC50: 6.40
[1]
  pEC50: 6.32
  Corresponding % viability: 106%

## O=c1cc(CSCc2ccc(Cl)cc2)[nH][nH]1 [TC-II-123]
[3]
  pEC50: 5.38

## O=c1cc(CSc2ccc(F)cc2Cl)[nH][nH]1 [CMB-086832-1]
[3]
  pEC50: 5.79
  Corresponding % viability: 68%

## CN(Cc1cc(=O)n(C)[nH]1)c1cc(Cl)cc(Cl)c1 [Compound 30, 5-(((3,5-Dichlorophenyl)(methyl)amino)methyl)-2-methyl-1H-pyrazol-3(2H)-one]
  activity in the cytotoxicity protection assay, in words: comparable in activity to parent compound 3

## O=c1cc(CSc2cccc(Cl)c2)[nH][nH]1 [CMB-086833-1]
[3]
  pEC50: 6.60
[1]
  pEC50: 5.95
  Corresponding % viability: 148%

## O=c1cc(COc2cc(-c3ccccc3)cc(-c3ccccc3)c2)[nH][nH]1 [CMB-087644-1]
[3]
  pEC50: 4.96
[1]
  pEC50: 5.43
  Corresponding % viability: 68%

## CN(Cc1cc(=O)n(Cc2ccccc2)[nH]1)c1cc(Cl)cc(Cl)c1 [Compound 29, 2-Benzyl-5-(((3,5-dichlorophenyl)(methyl)amino)methyl)-1H-pyrazol-3(2H)-one]
  activity in the cytotoxicity protection assay, in words: comparable in activity to parent compound 3

## CCc1ccc(OCc2cc(=O)[nH][nH]2)cc1 [CMB-087241-1]
[3]
  pEC50: 5.48
[1]
  pEC50: 5.71
  Corresponding % viability: 88%

## Cc1cc(S(=O)(=O)Cc2cc(=O)[nH][nH]2)c(C)cc1Cl [CMB-087213-1]
[3]
  pEC50: 5.64
[1]
  pEC50: 5.83
  Corresponding % viability: 116%

## CC(C)(C)c1cccc(OCc2cc(=O)[nH][nH]2)c1 [CMB-087215-1]
[3]
  pEC50: 5.97
[1]
  pEC50: 6.06
  Corresponding % viability: 141%

## O=c1cc(COc2cc(Cl)cc(Cl)c2)[nH][nH]1 [CMB-087229-5]
  Corresponding % viability: 123%
[2]
  pEC50: 6.26
[4]
  pEC50: 6.51

## O=c1cc(COc2cc(Cl)cc(Cl)c2)[nH][nH]1 [CMB-087229-1]
  Corresponding % viability: 129%
[2]
  pEC50: 7.30
[4]
  pEC50: 7.17

## O=c1cc(CSc2ccc(Cl)cc2)[nH][nH]1 [CMB-053529-1]
[1]
  pEC50: 5.71
  Corresponding % viability: 93%
[2]
  pEC50: 5.35

## O=c1cc(COc2cccc(-c3ccccc3)c2)[nH][nH]1 [CMB-087643-1]
[3]
  pEC50: 5.07
[1]
  pEC50: 5.55
  Corresponding % viability: 96%

## Cn1c(COc2cc(Cl)cc(Cl)c2)cc(=O)n1C [CMB-087363-1]
[3]
  pEC50: < 4.49

## O=c1cc(CSCCOc2ccccc2)[nH][nH]1 [TC-II-140]
[2]
  pEC50: 5.21

## Cn1[nH]c(COc2cc(Cl)cc(C(F)(F)F)c2)cc1=O [CMB-087264-1]
[3]
  pEC50: 5.18
[1]
  pEC50: 5.29
  Corresponding % viability: 109%

## Cn1[nH]c(COc2ccc(Cl)cc2)cc1=O [CMB-087362-1]
[3]
  pEC50: 5.12
[1]
  pEC50: 5.23
  Corresponding % viability: 107%

## O=c1cc(CSc2cc(Cl)cc(Cl)c2)[nH][nH]1 [CMB-086835-2]
  Corresponding % viability: 129%
[2]
  pEC50: 6.52
[4]
  pEC50: 6.54

## O=c1cc(COc2cc(Br)cc(Br)c2)[nH][nH]1 [CMB-087628-1]
[3]
  pEC50: 5.81
[1]
  pEC50: 6.29
  Corresponding % viability: 125%
